Measured values reported in ChEMBL document CHEMBL1201862, “PubChem BioAssay data set” (2004).
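How tested: cells in 96-well plates exposed to compound for 48 hours at five concentrations. GI50 = concentration required for 50% inhibition of growth.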 Active and inactive are the calls of the source. Cut-off read from the data, not from the text of the source: active = GI50 up to about 1.1 µM and inactive = higher.

Assays:
Experiment in all cases: NCI anticancer screen, dose series, 48 h
[1] = tested on: 786-0
[2] = tested on: A549
[3] = tested on: HOP-92
[4] = tested on: M14
[5] = tested on: MDA-MB-435
[6] = tested on: MOLT-4
[7] = tested on: Malme-3M
[8] = tested on: NCI-H460
[9] = tested on: OVCAR-4
[10] = tested on: SF-268
[11] = tested on: SF-539
[12] = tested on: SK-MEL-28
[13] = tested on: SK-MEL-5
[14] = tested on: SN12C
[15] = tested on: SW-620
[16] = tested on: TK-10
[17] = tested on: UO-31
[18] = tested on: Hs-578T
[19] = tested on: NCI-H226

| SMILES | GI50 [1] | GI50 [2] | GI50 [3] | GI50 [4] | GI50 [5] | GI50 [6] | GI50 [7] | GI50 [8] | GI50 [9] | GI50 [10] | GI50 [11] | GI50 [12] | GI50 [13] | GI50 [14] | GI50 [15] | GI50 [16] | GI50 [17] | GI50 [18] | GI50 [19] |
| --- | --- | --- | --- | --- | --- | --- | --- | --- | --- | --- | --- | --- | --- | --- | --- | --- | --- | --- | --- |
| COC(=O)[C@@H]1CCCN1CCN1CCC[C@H]1C(=O)OC | > 100 µM (inactive) | > 100 µM (inactive) | > 100 µM (inactive) | > 100 µM (inactive) | > 100 µM (inactive) | > 100 µM (inactive) | > 100 µM (inactive) | > 100 µM (inactive) | > 100 µM (inactive) | > 100 µM (inactive) | > 100 µM (inactive) | > 100 µM (inactive) | > 100 µM (inactive) | > 100 µM (inactive) | > 100 µM (inactive) | > 100 µM (inactive) | > 100 µM (inactive) | – | – |
| CC(=O)Nn1cnc(C(=N)C#N)c1N | > 100 µM (inactive) | > 100 µM (inactive) | – | > 100 µM (inactive) | > 100 µM (inactive) | > 100 µM (inactive) | > 100 µM (inactive) | > 100 µM (inactive) | > 100 µM (inactive) | > 100 µM (inactive) | > 100 µM (inactive) | > 100 µM (inactive) | > 100 µM (inactive) | > 100 µM (inactive) | > 100 µM (inactive) | > 100 µM (inactive) | > 100 µM (inactive) | > 100 µM (inactive) | > 100 µM (inactive) |
| CSc1[nH]nc(N)c1C(=O)Nc1ccc(Cl)cc1 | 52.1 µM (inactive) | 48.4 µM (inactive) | – | 68.9 µM (inactive) | > 100 µM (inactive) | 51.6 µM (inactive) | 63.7 µM (inactive) | 79.4 µM (inactive) | 50.5 µM (inactive) | 79.6 µM (inactive) | 66.2 µM (inactive) | > 100 µM (inactive) | > 100 µM (inactive) | > 100 µM (inactive) | 57.3 µM (inactive) | 47.2 µM (inactive) | 33 µM (inactive) | > 100 µM (inactive) | 25.6 µM (inactive) |
| CCOc1cc(NC(C)=O)ccc1C(=O)NN1C(=O)/C(=C/c2ccc(Cl)cc2)N=C1c1ccccc1 | 74.1 µM (inactive) | 37.8 µM (inactive) | 33.9 µM (inactive) | 48.5 µM (inactive) | 35.6 µM (inactive) | 17.7 µM (inactive) | – | – | 22.3 µM (inactive) | – | 90.2 µM (inactive) | > 100 µM (inactive) | 24.2 µM (inactive) | 70.6 µM (inactive) | > 100 µM (inactive) | 49.1 µM (inactive) | 34.9 µM (inactive) | – | 42.8 µM (inactive) |
| CCOC(=O)c1ccc(C(=O)/C(C#N)=C2\CCCN2C)[nH]1 | > 100 µM (inactive) | > 100 µM (inactive) | – | > 100 µM (inactive) | > 100 µM (inactive) | > 100 µM (inactive) | > 100 µM (inactive) | > 100 µM (inactive) | > 100 µM (inactive) | > 100 µM (inactive) | – | > 100 µM (inactive) | > 100 µM (inactive) | > 100 µM (inactive) | > 100 µM (inactive) | > 100 µM (inactive) | > 100 µM (inactive) | > 100 µM (inactive) | > 100 µM (inactive) |
| Cc1sc(N/N=C2\C(=O)Nc3ccccc32)nc1-c1ccccc1 | 17.4 µM (inactive) | 14.8 µM (inactive) | 23 µM (inactive) | 16 µM (inactive) | 19.6 µM (inactive) | 12.6 µM (inactive) | – | 10.2 µM (inactive) | 13.9 µM (inactive) | 13.6 µM (inactive) | 18.8 µM (inactive) | 17.3 µM (inactive) | 12.6 µM (inactive) | 12.1 µM (inactive) | 23.6 µM (inactive) | 23.8 µM (inactive) | 13.6 µM (inactive) | – | 33.3 µM (inactive) |
| O=C1c2ccccc2-c2c1c(-c1ccc([N+](=O)[O-])cc1)nc1ccc3ccccc3c21 | > 100 µM (inactive) | > 100 µM (inactive) | – | > 100 µM (inactive) | > 100 µM (inactive) | > 100 µM (inactive) | > 100 µM (inactive) | > 100 µM (inactive) | > 100 µM (inactive) | > 100 µM (inactive) | > 100 µM (inactive) | > 100 µM (inactive) | – | > 100 µM (inactive) | > 100 µM (inactive) | – | > 100 µM (inactive) | > 100 µM (inactive) | > 100 µM (inactive) |
| COc1cc2c(cc1OC)C(C#N)(Cc1ccccc1)N(C(=O)c1ccccc1)C=C2 (stereo unspecified) | > 100 µM (inactive) | – | 58.2 µM (inactive) | > 100 µM (inactive) | – | 32.5 µM (inactive) | > 100 µM (inactive) | 46.3 µM (inactive) | – | > 100 µM (inactive) | > 100 µM (inactive) | > 100 µM (inactive) | 26 µM (inactive) | > 100 µM (inactive) | 81.5 µM (inactive) | > 100 µM (inactive) | 36 µM (inactive) | – | 63 µM (inactive) |
| CCCCCCNC(=O)CCC(NC(=O)c1ccc(N(C)Cc2cnc3nc(N)nc(N)c3n2)cc1)C(=O)NCCCCCC (stereo unspecified) | > 100 µM (inactive) | > 100 µM (inactive) | 98.2 µM (inactive) | 73.8 µM (inactive) | > 100 µM (inactive) | > 100 µM (inactive) | – | 47.2 µM (inactive) | > 100 µM (inactive) | > 100 µM (inactive) | – | > 100 µM (inactive) | 7.41 µM (inactive) | > 100 µM (inactive) | > 100 µM (inactive) | > 100 µM (inactive) | > 100 µM (inactive) | – | > 100 µM (inactive) |
| COc1cc(Cc2nccc3cc(OC)c(OC)cc23)c(/N=N/N(C)C)cc1OC | 4 µM (inactive) | 23.4 µM (inactive) | – | 17.5 µM (inactive) | 18.5 µM (inactive) | 5.27 µM (inactive) | 22.3 µM (inactive) | 7.23 µM (inactive) | 20.5 µM (inactive) | 22.1 µM (inactive) | – | 11.2 µM (inactive) | 12.1 µM (inactive) | 14.3 µM (inactive) | 7.94 µM (inactive) | 20.4 µM (inactive) | 10 µM (inactive) | 18.4 µM (inactive) | 20.4 µM (inactive) |
| Cc1cc(S(=O)(=O)Nc2nc(N)nc(N(C)C)n2)c(S)cc1Cl | > 10 µM (inactive) | > 10 µM (inactive) | > 10 µM (inactive) | > 10 µM (inactive) | – | > 10 µM (inactive) | > 10 µM (inactive) | > 10 µM (inactive) | > 10 µM (inactive) | > 10 µM (inactive) | > 10 µM (inactive) | > 10 µM (inactive) | > 10 µM (inactive) | > 10 µM (inactive) | > 10 µM (inactive) | > 10 µM (inactive) | > 10 µM (inactive) | – | > 10 µM (inactive) |
| COc1ccc(/C=C/c2ccnc3ccccc23)cc1OC | 44.3 µM (inactive) | 15.1 µM (inactive) | – | 20 µM (inactive) | 15.1 µM (inactive) | 19.1 µM (inactive) | 16.9 µM (inactive) | 15.2 µM (inactive) | 12.3 µM (inactive) | 14 µM (inactive) | 15.8 µM (inactive) | 17.5 µM (inactive) | 14.8 µM (inactive) | 17.9 µM (inactive) | 15.7 µM (inactive) | 15.6 µM (inactive) | 0.186 µM (active) | 18.1 µM (inactive) | 22.9 µM (inactive) |
| CN(C)CCNC(=O)c1cc(-c2nccn2C)nc2ccccc12 | > 100 µM (inactive) | > 100 µM (inactive) | 64.7 µM (inactive) | > 100 µM (inactive) | > 100 µM (inactive) | > 100 µM (inactive) | > 100 µM (inactive) | 34.4 µM (inactive) | – | > 100 µM (inactive) | > 100 µM (inactive) | – | > 100 µM (inactive) | > 100 µM (inactive) | > 100 µM (inactive) | > 100 µM (inactive) | 52.8 µM (inactive) | – | > 100 µM (inactive) |
| COc1cccc2c1CCc1cc3c(N)nc(N)nc3nc1-2 | 2.08 µM (inactive) | 2.45 µM (inactive) | 14 µM (inactive) | 4.22 µM (inactive) | 5.3 µM (inactive) | 0.653 µM (active) | 5.14 µM (inactive) | 4.83 µM (inactive) | 6.22 µM (inactive) | 6.73 µM (inactive) | 1.79 µM (inactive) | 2.78 µM (inactive) | 3.09 µM (inactive) | 6.43 µM (inactive) | 3.65 µM (inactive) | 10.9 µM (inactive) | 3.21 µM (inactive) | – | 12.6 µM (inactive) |
| S=C1CC(c2ccccc2)Sc2cc(Cl)ccc2N1 (stereo unspecified) | 5.42 µM (inactive) | 5.68 µM (inactive) | – | 3.12 µM (inactive) | 0.723 µM (active) | 1.51 µM (inactive) | 6.28 µM (inactive) | 6.59 µM (inactive) | 13.2 µM (inactive) | 6.84 µM (inactive) | – | 8.73 µM (inactive) | 5.64 µM (inactive) | 8.77 µM (inactive) | – | 16.2 µM (inactive) | 44.5 µM (inactive) | 8.91 µM (inactive) | 14.2 µM (inactive) |
| COc1c(Br)cc(/C=C(\C#N)c2ccccn2)cc1Br | 4.09 µM (inactive) | > 100 µM (inactive) | – | > 100 µM (inactive) | – | > 100 µM (inactive) | 44.7 µM (inactive) | > 100 µM (inactive) | – | 23.2 µM (inactive) | 33.4 µM (inactive) | > 100 µM (inactive) | > 100 µM (inactive) | > 100 µM (inactive) | > 100 µM (inactive) | 67.6 µM (inactive) | > 100 µM (inactive) | – | 48.4 µM (inactive) |
